Data published in ChEMBL document CHEMBL4706552, “Discovery of 4-methyl-N-(4-((4-methylpiperazin- 1-yl)methyl)-3-(trifluoromethyl)phenyl)-3-((6-(pyridin-3-yl)-1H-pyrazolo[3,4-d]pyrimidin-4-yl)-oxy)benzamide as a potent inhibitor of RET and its gatekeeper mutant” (Eur J Med Chem, 2020).

Key:
Assay type in all cases: cell-based
[1] = molecular target: T1, Coiled-coil domain-containing protein 6/Tyrosine-protein kinase receptor RET (Homo sapiens) (UniProt P07949+Q16204); assay: Inhibition of CCDC6-RET fusion protein (unknown origin) expressed in mouse BaF3 cells assessed as reduction in cell proliferation measured after 48 hrs by MTS assay
T1 sequence (P07949 29-1114 limits assumed): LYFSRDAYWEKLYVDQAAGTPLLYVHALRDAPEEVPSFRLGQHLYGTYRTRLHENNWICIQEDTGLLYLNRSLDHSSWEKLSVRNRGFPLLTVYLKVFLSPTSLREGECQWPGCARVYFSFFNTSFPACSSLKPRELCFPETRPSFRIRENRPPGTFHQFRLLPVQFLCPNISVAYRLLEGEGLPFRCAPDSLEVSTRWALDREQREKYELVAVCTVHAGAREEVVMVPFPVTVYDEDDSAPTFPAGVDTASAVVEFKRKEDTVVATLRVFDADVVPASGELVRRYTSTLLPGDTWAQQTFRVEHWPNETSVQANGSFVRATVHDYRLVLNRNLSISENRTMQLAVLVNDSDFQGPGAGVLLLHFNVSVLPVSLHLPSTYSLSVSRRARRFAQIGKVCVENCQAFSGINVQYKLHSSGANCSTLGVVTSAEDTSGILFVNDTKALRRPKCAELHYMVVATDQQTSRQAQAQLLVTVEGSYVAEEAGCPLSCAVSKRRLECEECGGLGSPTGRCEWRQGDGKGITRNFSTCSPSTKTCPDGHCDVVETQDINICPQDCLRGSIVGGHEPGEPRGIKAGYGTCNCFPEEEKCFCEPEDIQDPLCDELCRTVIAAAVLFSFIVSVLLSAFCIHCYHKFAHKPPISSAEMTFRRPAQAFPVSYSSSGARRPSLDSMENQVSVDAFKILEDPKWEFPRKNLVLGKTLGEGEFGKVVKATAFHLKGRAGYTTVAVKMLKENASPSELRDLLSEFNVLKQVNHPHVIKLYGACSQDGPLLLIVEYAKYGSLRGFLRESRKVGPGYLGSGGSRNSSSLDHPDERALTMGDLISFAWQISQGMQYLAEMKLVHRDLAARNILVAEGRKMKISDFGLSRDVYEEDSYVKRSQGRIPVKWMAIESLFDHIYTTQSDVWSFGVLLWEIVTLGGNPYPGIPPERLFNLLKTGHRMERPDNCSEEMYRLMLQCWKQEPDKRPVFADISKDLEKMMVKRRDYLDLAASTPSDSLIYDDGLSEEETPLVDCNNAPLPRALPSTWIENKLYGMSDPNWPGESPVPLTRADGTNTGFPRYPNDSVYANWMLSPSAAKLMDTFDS
T1 sequence (Q16204 2-474 partner limits assumed): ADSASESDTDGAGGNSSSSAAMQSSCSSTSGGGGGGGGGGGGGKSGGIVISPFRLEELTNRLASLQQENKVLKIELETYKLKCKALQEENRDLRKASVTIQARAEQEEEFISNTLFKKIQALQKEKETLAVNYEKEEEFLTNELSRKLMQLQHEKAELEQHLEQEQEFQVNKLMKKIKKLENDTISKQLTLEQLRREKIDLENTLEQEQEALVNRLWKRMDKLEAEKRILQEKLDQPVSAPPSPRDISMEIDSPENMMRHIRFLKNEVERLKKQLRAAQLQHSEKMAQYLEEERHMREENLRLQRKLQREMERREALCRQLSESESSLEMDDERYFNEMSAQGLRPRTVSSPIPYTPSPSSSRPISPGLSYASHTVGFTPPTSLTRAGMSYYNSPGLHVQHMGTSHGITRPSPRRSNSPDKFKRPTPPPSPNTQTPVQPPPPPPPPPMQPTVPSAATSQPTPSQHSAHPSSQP

[2] = molecular target: T2, Kinesin-1 heavy chain/ Tyrosine-protein kinase receptor RET (Homo sapiens) (UniProt P07949+P33176); assay: Inhibition of KIF5B-RET fusion protein (unknown origin) expressed in mouse BaF3 cells assessed as reduction in cell proliferation measured after 48 hrs by MTS assay
T2 sequence (P07949 29-1114 limits assumed): as the sequence (P07949 29-1114 limits assumed) above
T2 sequence (P33176 2-963 partner limits assumed): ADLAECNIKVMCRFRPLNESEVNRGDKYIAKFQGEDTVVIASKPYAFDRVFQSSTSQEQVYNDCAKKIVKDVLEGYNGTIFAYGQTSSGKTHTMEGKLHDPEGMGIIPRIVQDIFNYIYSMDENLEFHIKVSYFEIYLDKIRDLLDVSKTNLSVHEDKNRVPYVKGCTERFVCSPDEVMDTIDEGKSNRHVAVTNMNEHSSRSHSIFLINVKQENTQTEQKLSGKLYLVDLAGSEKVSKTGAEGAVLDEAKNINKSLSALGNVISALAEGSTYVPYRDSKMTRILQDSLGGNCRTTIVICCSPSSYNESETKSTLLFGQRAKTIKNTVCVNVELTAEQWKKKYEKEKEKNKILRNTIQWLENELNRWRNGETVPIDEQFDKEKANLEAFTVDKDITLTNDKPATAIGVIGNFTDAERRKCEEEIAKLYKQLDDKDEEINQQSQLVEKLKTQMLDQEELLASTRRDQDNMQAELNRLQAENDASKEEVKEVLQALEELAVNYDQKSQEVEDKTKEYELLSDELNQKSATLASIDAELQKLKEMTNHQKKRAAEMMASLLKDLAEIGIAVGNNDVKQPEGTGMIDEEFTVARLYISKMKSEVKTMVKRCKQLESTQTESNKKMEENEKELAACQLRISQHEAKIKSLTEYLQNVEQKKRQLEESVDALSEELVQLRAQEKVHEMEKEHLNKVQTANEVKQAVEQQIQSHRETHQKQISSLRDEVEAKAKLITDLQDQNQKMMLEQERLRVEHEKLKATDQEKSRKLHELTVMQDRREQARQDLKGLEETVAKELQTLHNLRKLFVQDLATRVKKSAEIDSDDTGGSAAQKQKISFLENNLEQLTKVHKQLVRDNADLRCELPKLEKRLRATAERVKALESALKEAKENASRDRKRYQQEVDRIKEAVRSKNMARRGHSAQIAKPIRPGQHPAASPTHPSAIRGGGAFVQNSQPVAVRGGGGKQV

[3] = tested on: Kinesin-1 heavy chain/ Tyrosine-protein kinase receptor RET (Homo sapiens), P07949+P33176 [V804M]; assay: Inhibition of KIF5B-RET V804M mutant fusion protein (unknown origin) expressed in mouse BaF3 cells assessed as reduction in cell proliferation measured after 48 hrs by MTS assay
[4] = Cytotoxicity against mouse BaF3 cells assessed as reduction in cell proliferation measured after 48 hrs by MTS assay
BaF3 = assay: Inhibition of CCDC6-RET V804M mutant fusion protein (unknown origin) expressed in mouse BaF3 cells assessed as reduction in cell proliferation measured after 48 hrs by MTS assay; details: Homo sapiens
[5] = molecular target: T2, Kinesin-1 heavy chain/ Tyrosine-protein kinase receptor RET (Homo sapiens); assay: Inhibition of KIF5B-RET fusion protein (unknown origin) expressed in mouse BaF3 cells assessed as cell survival at 2 uM measured after 48 hrs by MTS assay relative to control
[6] = molecular target: T1, Coiled-coil domain-containing protein 6/Tyrosine-protein kinase receptor RET (Homo sapiens); assay: Inhibition of CCDC6-RET fusion protein (unknown origin) expressed in mouse BaF3 cells assessed as cell survival at 2 uM measured after 48 hrs by MTS assay relative to control

| Structure (SMILES) | GI50 [1] [nM] | GI50 [2] [nM] | GI50 [3] [nM] | GI50 at 48 h [4] [nM] | GI50 (BaF3) [nM] | Survival [5] [%] | Survival [6] [%] |
| --- | --- | --- | --- | --- | --- | --- | --- |
| Cc1ccc(C(=O)Nc2cccc(C(F)(F)F)c2)cc1Oc1nc(-c2cccnc2)nc2c1cnn2C | 1970 | 2240 | – | – | – | – | – |
| CN1CCN(Cc2ccc(C(=O)Nc3cc(Oc4nc(-c5ccncc5)nc5c4cnn5C)ccc3Cl)cc2C(F)(F)F)CC1 | 16 | 114 | 8190 | 3400 | > 10000 | – | – |
| Cc1ccc(Oc2nc(-c3ccncc3)nc3c2cnn3C)cc1NC(=O)c1ccc(CN2CCN(C)CC2)c(C(F)(F)F)c1 | 13 | 6 | 4210 | 2780 | 4870 | – | – |
| Cc1ccc(C(=O)Nc2ccc(CN3CCN(C)CC3)c(C(F)(F)F)c2)cc1Oc1nc(-c2cccc(Cl)c2)nc2c1cnn2C | 807 | 320 | – | – | – | – | – |
| Cc1ccc(C(=O)Nc2ccc(CN3CCN(C)CC3)c(C(F)(F)F)c2)cc1Oc1nc(-c2ccsc2)nc2c1cnn2C | 449 | 36 | 564 | 5070 | 736 | – | – |
| CN1CCN(Cc2ccc(NC(=O)c3cc(Oc4nc(-c5cccnc5)nc5c4cnn5C)ccc3Cl)cc2C(F)(F)F)CC1 | 4170 | 4020 | – | – | – | – | – |
| Cc1ccc(C(=O)Nc2ccc(CN3CCN(C)CC3)c(C(F)(F)F)c2)cc1Oc1nc(-c2ccncc2)nc2[nH]ncc12 | 73 | 240 | – | – | – | – | – |
| Cc1ccc(-c2nc(Oc3cc(C(=O)Nc4ccc(CN5CCN(C)CC5)c(C(F)(F)F)c4)ccc3C)c3cnn(C)c3n2)cc1 | 847 | 152 | – | – | – | – | – |
| Cc1ccc(Oc2nc(-c3cccnc3)nc3c2cnn3C)cc1NC(=O)c1ccc(CN2CCN(C)CC2)c(C(F)(F)F)c1 | 4170 | 4420 | – | – | – | – | – |
| Cc1ccc(C(=O)Nc2ccc(CN3CCN(C)CC3)c(C(F)(F)F)c2)cc1Oc1nc(-c2ccc(Cl)cc2)nc2c1cnn2C | 696 | 114 | – | – | – | – | – |
| Cc1ccc(NC(=O)c2ccc(CN3CCN(C)CC3)c(C(F)(F)F)c2)cc1Oc1nc(-c2ccncc2)nc2c1cnn2C | 617 | 469 | – | – | – | – | – |
| CN1CCN(Cc2ccc(NC(=O)c3cc(Oc4nc(-c5ccncc5)nc5c4cnn5C)ccc3Cl)cc2C(F)(F)F)CC1 | 108 | 130 | – | – | – | – | – |
| Cc1ccc(C(=O)Nc2ccc(CN3CCN(C)CC3)c(C(F)(F)F)c2)cc1Oc1nc(-c2cccc(O)c2)nc2c1cnn2C | 178 | 28 | 274 | 2640 | 499 | – | – |
| Cc1ccc(Oc2nc(-c3ccncc3)nc3[nH]ncc23)cc1NC(=O)c1ccc(CN2CCN(C)CC2)c(C(F)(F)F)c1 | 4 | 4 | 757 | 3450 | 1890 | – | – |
| Cc1ccc(C(=O)Nc2ccc(CN3CCN(C)CC3)c(C(F)(F)F)c2)cc1Oc1nc(-c2ccncc2)nc2c1cnn2C | 39 | 36 | 90 | 2620 | 220 | – | – |
| Cc1ccc(C(=O)Nc2ccc(CN3CCN(C)CC3)c(C(F)(F)F)c2)cc1Oc1nc(-c2ccccc2)nc2c1cnn2C | 348 | 98 | – | – | – | – | – |
| Cc1ccc(Oc2nc(-c3cccnc3)nc3[nH]ncc23)cc1NC(=O)c1ccc(CN2CCN(C)CC2)c(C(F)(F)F)c1 | 2370 | 3890 | – | – | – | – | – |
| CN1CCN(Cc2ccc(C(=O)Nc3cccc(Oc4nc(-c5ccncc5)nc5c4cnn5C)c3)cc2C(F)(F)F)CC1 | 140 | 106 | – | – | – | – | – |
| CN1CCN(Cc2ccc(NC(=O)c3cccc(Oc4nc(-c5cccnc5)nc5c4cnn5C)c3)cc2C(F)(F)F)CC1 | – | – | – | – | – | 56.5 | 65.5 |
| Cc1ccc(C(=O)Nc2cc(CN3CCN(C)CC3)cc(C(F)(F)F)c2)cc1Oc1nc(-c2cccnc2)nc2c1cnn2C | 264 | 482 | – | – | – | – | – |

| Structure (SMILES) | GI50 [1] [nM] | GI50 [2] [nM] | GI50 [3] [nM] | GI50 at 48 h [4] [nM] | GI50 (BaF3) [nM] | Survival [5] [%] | Survival [6] [%] |
| --- | --- | --- | --- | --- | --- | --- | --- |
| Cc1cn(-c2cc(NC(=O)c3ccc(C)c(Oc4nc(-c5cccnc5)nc5c4cnn5C)c3)cc(C(F)(F)F)c2)cn1 | > 10000 | > 10000 | – | – | – | – | – |
| CN1CCN(Cc2ccc(NC(=O)c3cccc(Oc4nc(-c5ccncc5)nc5c4cnn5C)c3)cc2C(F)(F)F)CC1 | – | – | – | – | – | 74.9 | 94.1 |
| Cc1cn(-c2cc(NC(=O)c3ccc(C)c(Oc4nc(-c5ccncc5)nc5c4cnn5C)c3)cc(C(F)(F)F)c2)cn1 | 1570 | 2620 | – | – | – | – | – |
| Cc1ccc(Oc2nc(-c3ccncc3)nc3c2cnn3C)cc1C(=O)Nc1ccc(CN2CCN(C)CC2)c(C(F)(F)F)c1 | 1520 | 440 | – | – | – | – | – |
| CN1CCN(Cc2ccc(C(=O)Nc3cccc(Oc4nc(-c5ccncc5)nc5[nH]ncc45)c3)cc2C(F)(F)F)CC1 | 79 | 299 | – | – | – | – | – |
| CN1CCN(Cc2ccc(C(=O)Nc3cc(Oc4nc(-c5cccnc5)nc5[nH]ncc45)ccc3Cl)cc2C(F)(F)F)CC1 | 567 | 1350 | – | – | – | – | – |
| Cc1ccc(NC(=O)c2ccc(CN3CCN(C)CC3)c(C(F)(F)F)c2)cc1Oc1nc(-c2cccnc2)nc2c1cnn2C | 477 | 411 | – | – | – | – | – |
| COc1cc2nccc(Oc3ccc(NC(=O)C4(C(=O)Nc5ccc(F)cc5)CC4)cc3)c2cc1OC [CABOZANTINIB] | 29 | – | 1210 | 7910 | 1000 | – | – |
| Cc1ccc(C(=O)Nc2ccc(CN3CCN(C)CC3)c(C(F)(F)F)c2)cc1Oc1nc(-c2cccnc2)nc2c1cnn2C | 39 | 35 | 113 | 1290 | 136 | – | – |
| CN1CCN(Cc2ccc(C(=O)Nc3cc(Oc4nc(-c5cccnc5)nc5c4cnn5C)ccc3Cl)cc2C(F)(F)F)CC1 | 2070 | 1390 | – | – | – | – | – |
| CN1CCN(Cc2ccc(C(=O)Nc3cccc(Oc4nc(-c5cccnc5)nc5[nH]ncc45)c3)cc2C(F)(F)F)CC1 | 342 | 820 | – | – | – | – | – |
| Cc1ccc(C(=O)Nc2ccc(CN3CCN(C)CC3)c(C(F)(F)F)c2)cc1Oc1nc(-c2ccoc2)nc2c1cnn2C | 75 | 14 | 290 | > 10000 | 529 | – | – |
| CCn1ncc2c(Oc3cc(C(=O)Nc4ccc(CN5CCN(C)CC5)c(C(F)(F)F)c4)ccc3C)nc(-c3ccncc3)nc21 | > 10000 | > 10000 | – | – | – | – | – |
| Cc1ccc(C(=O)Nc2ccc(CN3CCN(C)CC3)c(C(F)(F)F)c2)cc1Oc1nc(-c2ccc(O)cc2)nc2c1cnn2C | 166 | 57 | – | – | – | – | – |
| CO[C@]1(C(=O)N[C@@H](C)c2ccc(-n3cc(F)cn3)nc2)CC[C@H](c2nc(C)cc(Nc3cc(C)[nH]n3)n2)CC1 [PRALSETINIB] | < 4 | < 4 | < 4 | 1270 | < 4 | – | – |
| Cc1ccc(C(=O)Nc2ccc(CN3CCN(C)CC3)c(C(F)(F)F)c2)cc1Oc1nc(Nc2ccccc2)nc2c1cnn2C | 123 | 70 | – | – | – | – | – |
| Cc1ccc(C(=O)Nc2ccc(CN3CCN(C)CC3)c(C(F)(F)F)c2)cc1Oc1nc(-c2ccncc2)nc2c1cnn2C(C)C | 1100 | 915 | – | – | – | – | – |
| CN1CCN(Cc2ccc(C(=O)Nc3cc(Oc4nc(-c5ccncc5)nc5[nH]ncc45)ccc3Cl)cc2C(F)(F)F)CC1 | 13 | 22 | 6520 | 1010 | 7380 | – | – |
| CN1CCN(Cc2ccc(C(=O)Nc3cccc(Oc4nc(-c5cccnc5)nc5c4cnn5C)c3)cc2C(F)(F)F)CC1 | 1110 | 953 | – | – | – | – | – |
| Cc1ccc(Oc2nc(-c3cccnc3)nc3c2cnn3C)cc1C(=O)Nc1ccc(CN2CCN(C)CC2)c(C(F)(F)F)c1 | – | – | – | – | – | 87.5 | 100 |
